Experiments:
NS3/NS4 complexes = NS3/NS4 complexes (Hepatitis C virus genotype 1a, UniProt P27958); assay: NS3/NS4 inhibition assay (IC50); assay type: biochemical; conditions: NS3/NS4 activity; 23° C., 25 μM NS4A peptide
Procedure, shortened: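 First, NS3 and NS4 are complexed; test compounds are then titrated against the complex at room temperature (23° C.) in Tris-HCl buffer, pH 7.5, supplemented with glycerol (15%), LDAO (0.6 mM), DTT (10 mM) and NS4A peptide (25 μM) to give IC50. Separately, replicon cells give EC50.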

hepatitis C replicon = hepatitis C replicon EC50 assay; assay type: cell-based; conditions: Hepatitis C virus; hepatitis C replicon; read-out: EC50
Procedure, shortened: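 Replicon EC50 determined per a referenced patent protocol; assays run at ambient temperature (23° C.) in 50 mM Tris-HCl pH 7.5 with 15% glycerol, 0.6 mM LDAO, 25 μM NS4A peptide and 10 mM DTT.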

NS3/NS4 complexes, sequence (P27958 1027-1657, one chain of several): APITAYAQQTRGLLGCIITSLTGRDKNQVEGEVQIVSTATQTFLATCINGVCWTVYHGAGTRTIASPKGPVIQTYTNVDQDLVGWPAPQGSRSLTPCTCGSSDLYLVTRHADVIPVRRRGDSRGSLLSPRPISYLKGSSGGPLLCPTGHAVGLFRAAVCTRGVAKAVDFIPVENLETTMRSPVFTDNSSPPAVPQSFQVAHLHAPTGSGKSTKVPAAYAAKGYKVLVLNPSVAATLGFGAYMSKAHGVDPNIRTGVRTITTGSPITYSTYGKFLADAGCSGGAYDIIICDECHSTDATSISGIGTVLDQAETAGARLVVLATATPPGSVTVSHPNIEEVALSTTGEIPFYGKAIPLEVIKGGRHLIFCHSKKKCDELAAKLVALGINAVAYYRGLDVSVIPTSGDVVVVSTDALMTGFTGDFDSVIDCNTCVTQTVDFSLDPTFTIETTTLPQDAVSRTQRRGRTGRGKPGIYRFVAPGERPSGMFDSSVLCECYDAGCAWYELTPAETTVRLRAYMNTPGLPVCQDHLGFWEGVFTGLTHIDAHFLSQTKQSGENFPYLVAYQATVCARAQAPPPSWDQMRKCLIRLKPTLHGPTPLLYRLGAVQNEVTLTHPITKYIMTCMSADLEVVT

| SMILES | IC50 (NS3/NS4 complexes) [nM] | EC50 (hepatitis C replicon) [nM] |
| --- | --- | --- |
| CCCc1nc(-c2cccc3c2nc(O[C@@H]2C[C@H]4C(=O)N[C@]5(C(=O)NS(=O)(=O)N(C)C)C[C@H]5/C=C\CCCCC[C@H](NC(=O)OC(C)(C)C)C(=O)N4C2)n3C(C)C)oc1C [Compound 1206] | < 10 | < 10 |
| Cc1sc(-c2cccc3c2nc(O[C@@H]2C[C@H]4C(=O)N[C@]5(C(=O)NS(=O)(=O)N(C)C)C[C@H]5/C=C\CCCCC[C@H](NC(=O)OC(C)(C)C)C(=O)N4C2)n3C(C)C)nc1C(C)(C)C [Compound 1207] | < 10 | 10 to 100 |
| Cc1sc(-c2cccc3c2nc(O[C@@H]2C[C@H]4C(=O)N[C@]5(C(=O)NS(=O)(=O)C6(C)CC6)C[C@H]5/C=C\CCCCC[C@H](NC(=O)OC(C)(C)C)C(=O)N4C2)n3C(C)C)nc1C(C)(C)C [Compound 1208] | < 10 | 10 to 100 |
| CCCc1nc(-c2cccc3c2nc(O[C@@H]2C[C@H]4C(=O)N[C@]5(C(=O)NS(=O)(=O)N(C)C)C[C@H]5/C=C\CCCCC[C@H](NC(=O)OC(C)(C)C)C(=O)N4C2)n3C(C)C)sc1C [Compound 1209] | < 10 | < 10 |
| CCCc1nc(-c2cccc3c2nc(O[C@@H]2C[C@H]4C(=O)N[C@]5(C(=O)NS(=O)(=O)C6(C)CC6)C[C@H]5/C=C\CCCCC[C@H](NC(=O)OC(C)(C)C)C(=O)N4C2)n3C(C)C)sc1C [Compound 1210] | < 10 | < 10 |
| CC(C)c1nc(-c2cccc3c2nc(O[C@@H]2C[C@H]4C(=O)N[C@]5(C(=O)NS(=O)(=O)N(C)C)C[C@H]5/C=C\CCCCC[C@H](NC(=O)OC(C)(C)C)C(=O)N4C2)n3C(C)C)oc1C(C)C [Compound 1211] | < 10 | < 10 |
| CC(C)c1nc(-c2cccc3c2nc(O[C@@H]2C[C@H]4C(=O)N[C@]5(C(=O)NS(=O)(=O)C6(C)CC6)C[C@H]5/C=C\CCCCC[C@H](NC(=O)OC(C)(C)C)C(=O)N4C2)n3C(C)C)oc1C(C)C [Compound 1212] | < 10 | < 10 |
| CC(C)c1nc(-c2cccc3c2nc(O[C@@H]2C[C@H]4C(=O)N[C@]5(C(=O)NS(=O)(=O)C6(C)CC6)C[C@H]5/C=C\CCCCC[C@H](NC(=O)OC(C)(C)C)C(=O)N4C2)n3C(C)C)sc1C(C)C [Compound 1213] | < 10 | 10 to 100 |
| Cc1oc(-c2cccc3c2nc(O[C@@H]2C[C@H]4C(=O)N[C@]5(C(=O)NS(=O)(=O)N(C)C)C[C@H]5/C=C\CCCCC[C@H](NC(=O)OC(C)(C)C)C(=O)N4C2)n3C(C)C)nc1Cc1ccccc1 [Compound 1214] | < 10 | < 10 |
| Cc1oc(-c2cccc3c2nc(O[C@@H]2C[C@H]4C(=O)N[C@]5(C(=O)NS(=O)(=O)C6(C)CC6)C[C@H]5/C=C\CCCCC[C@H](NC(=O)OC(C)(C)C)C(=O)N4C2)n3C(C)C)nc1Cc1ccccc1 [Compound 1215] | < 10 | < 10 |
| Cc1sc(-c2cccc3c2nc(O[C@@H]2C[C@H]4C(=O)N[C@]5(C(=O)NS(=O)(=O)N(C)C)C[C@H]5/C=C\CCCCC[C@H](NC(=O)OC(C)(C)C)C(=O)N4C2)n3C(C)C)nc1Cc1ccccc1 [Compound 1216] | < 10 | < 10 |
| Cc1sc(-c2cccc3c2nc(O[C@@H]2C[C@H]4C(=O)N[C@]5(C(=O)NS(=O)(=O)C6(C)CC6)C[C@H]5/C=C\CCCCC[C@H](NC(=O)OC(C)(C)C)C(=O)N4C2)n3C(C)C)nc1Cc1ccccc1 [Compound 1217] | < 10 | < 10 |
| CC(C)c1nc(-c2cccc3c2nc(O[C@@H]2C[C@H]4C(=O)N[C@]5(C(=O)NS(=O)(=O)N(C)C)C[C@H]5/C=C\CCCCC[C@H](Nc5ccccc5)C(=O)N4C2)n3C(C)C)sc1C(C)C [Compound 1218] | < 10 | > 100 |
| Cc1sc(-c2c(F)ccc3c2nc(O[C@@H]2C[C@H]4C(=O)N[C@]5(C(=O)NS(=O)(=O)N(C)C)C[C@H]5/C=C\CCCCC[C@H](NC(=O)OC(C)(C)C)C(=O)N4C2)n3C(C)C)nc1C(C)C [Compound 1219] | < 10 | < 10 |
| Cc1oc(-c2c(F)ccc3c2nc(O[C@@H]2C[C@H]4C(=O)N[C@]5(C(=O)NS(=O)(=O)N(C)C)C[C@H]5/C=C\CCCCC[C@H](NC(=O)OC(C)(C)C)C(=O)N4C2)n3C(C)C)nc1C(C)C [Compound 1220] | < 10 | < 10 |
| CC(C)c1csc(NC(=O)c2cccc3c2nc(O[C@@H]2C[C@H]4C(=O)N[C@]5(C(=O)NS(=O)(=O)N(C)C)C[C@H]5/C=C\CCCCC[C@H](NC(=O)OC(C)(C)C)C(=O)N4C2)n3C(C)C)n1 [Compound 1221] | < 10 | < 10 |
| CC(C)n1c(O[C@@H]2C[C@H]3C(=O)N[C@]4(C(=O)NS(=O)(=O)N(C)C)C[C@H]4/C=C\CCCCC[C@H](NC(=O)OC(C)(C)C)C(=O)N3C2)nc2c(C(=O)NCc3nccs3)cccc21 [Compound 1222] | < 10 | < 10 |

| SMILES | IC50 (NS3/NS4 complexes) [nM] | EC50 (hepatitis C replicon) [nM] |
| --- | --- | --- |
| CCCn1c(O[C@@H]2C[C@H]3C(=O)N[C@]4(C(=O)NS(=O)(=O)N(C)C)C[C@H]4/C=C\CCCCC[C@H](NC(=O)OC(C)(C)C)C(=O)N3C2)nc2ccccc21 [Compound 1223] | < 10 | < 10 |
| CCC(C)n1c(O[C@@H]2C[C@H]3C(=O)N[C@]4(C(=O)NS(=O)(=O)N(C)C)C[C@H]4/C=C\CCCCC[C@H](NC(=O)OC(C)(C)C)C(=O)N3C2)nc2ccccc21 (stereo partly drawn) [Compound 1224] | < 10 | < 10 |
| Cc1nc2cc(O[C@@H]3C[C@H]4C(=O)N[C@]5(C(=O)NS(=O)(=O)C6(C)CC6)C[C@H]5/C=C\CCCCC[C@H](NC(=O)OC(C)(C)C)C(=O)N4C3)ccc2o1 [Compound 1251] | < 10 | 10 to 100 |
| Cc1nc2cc(O[C@@H]3C[C@H]4C(=O)N[C@]5(C(=O)NS(=O)(=O)C6(C)CC6)C[C@H]5/C=C\CCCCC[C@H](Nc5ccccc5)C(=O)N4C3)ccc2o1 [Compound 1252] | < 10 | 10 to 100 |
| Cc1nc2cc(O[C@@H]3C[C@H]4C(=O)N[C@]5(C(=O)NS(=O)(=O)N(C)C)C[C@H]5/C=C\CCCCC[C@H](NC(=O)OC(C)(C)C)C(=O)N4C3)ccc2s1 [Compound 1253] | < 10 | > 100 |
| CC(C)n1c(O[C@@H]2C[C@H]3C(=O)N[C@]4(C(=O)NS(=O)(=O)C5(C)CC5)C[C@H]4/C=C\CCCCC[C@H](NC(=O)OC(C)(C)C)C(=O)N3C2)nc2c(NS(=O)(=O)Cc3ccccc3)cccc21 [Compound 1401] | < 10 | < 10 |
| CC(C)n1c(O[C@@H]2C[C@H]3C(=O)N[C@]4(C(=O)NS(=O)(=O)C5(C)CC5)C[C@H]4/C=C\CCCCC[C@H](NC(=O)OC(C)(C)C)C(=O)N3C2)nc2c(-c3nc(C4CCCC4)cs3)cccc21 [Compound 1402] | < 10 | < 10 |
| CC(C)c1csc(-c2cccc3c2nc(O[C@@H]2C[C@H]4C(=O)N[C@]5(C(=O)NS(=O)(=O)C6(C)CC6)C[C@H]5/C=C\CCCCC[C@H](NC(=O)OC(C)(C)C)C(=O)N4C2)n3C(C)C)n1 [Compound 1403] | < 10 | < 10 |
| CC(C)c1ccn(-c2cccc3c2nc(O[C@@H]2C[C@H]4C(=O)N[C@]5(C(=O)NS(=O)(=O)C6(C)CC6)C[C@H]5/C=C\CCCCC[C@H](NC(=O)OC(C)(C)C)C(=O)N4C2)n3C(C)C)n1 [Compound 1404] | < 10 | < 10 |
| CCNC(=O)Nc1cccc2c1nc(O[C@@H]1C[C@H]3C(=O)N[C@]4(C(=O)NS(=O)(=O)C5(C)CC5)C[C@H]4/C=C\CCCCC[C@H](Nc4ccccc4)C(=O)N3C1)n2C(C)C [Compound 1405] | < 10 | 10 to 100 |
| CNC(=O)Nc1cccc2c1nc(O[C@@H]1C[C@H]3C(=O)N[C@]4(C(=O)NS(=O)(=O)C5(C)CC5)C[C@H]4/C=C\CCCCC[C@H](Nc4ccccc4)C(=O)N3C1)n2C(C)C [Compound 1406] | < 10 | > 100 |
| CC(C)NC(=O)Nc1cccc2c1nc(O[C@@H]1C[C@H]3C(=O)N[C@]4(C(=O)NS(=O)(=O)C5(C)CC5)C[C@H]4/C=C\CCCCC[C@H](Nc4ccccc4)C(=O)N3C1)n2C(C)C [Compound 1407] | < 10 | 10 to 100 |
| CC(C)n1c(O[C@@H]2C[C@H]3C(=O)N[C@]4(C(=O)NS(=O)(=O)C5(C)CC5)C[C@H]4/C=C\CCCCC[C@H](Nc4ccccc4)C(=O)N3C2)nc2c(N)cccc21 [Compound 1408] | < 10 | 10 to 100 |
| CCOC(=O)Nc1cccc2c1nc(O[C@@H]1C[C@H]3C(=O)N[C@]4(C(=O)NS(=O)(=O)C5(C)CC5)C[C@H]4/C=C\CCCCC[C@H](Nc4ccccc4)C(=O)N3C1)n2C(C)C [Compound 1409] | < 10 | < 10 |
| CC(C)n1c(O[C@@H]2C[C@H]3C(=O)N[C@]4(C(=O)NS(=O)(=O)C5(C)CC5)C[C@H]4/C=C\CCCCC[C@H](Nc4ccccc4)C(=O)N3C2)nc2c(NC(N)=O)cccc21 [Compound 1410] | < 10 | 10 to 100 |
| CC(C)n1c(O[C@@H]2C[C@H]3C(=O)N[C@]4(C(=O)NS(=O)(=O)C5(C)CC5)C[C@H]4/C=C\CCCCC[C@H](NC(=O)OC4CCCC4)C(=O)N3C2)nc2c(-c3nc(C4CCCC4)cs3)cccc21 [Compound 1412] | < 10 | < 10 |

— US20110081315A1, “NOVEL MACROCYCLIC INHIBITORS OF HEPATITIS C VIRUS REPLICATION” (INTERMUNE, INC., priority 2009, published 2011)
